These results are taken from patent US20120077737A1, “HEPATITIS C INHIBITOR COMPOUNDS” (priority 2009, published 2012).

Assay [1] concerns HCV genotype 1b subgenomic replicon with NS3 resistance mutation D168V. The assay can be described thus: HCV replicon RNA replication assay, D168V 1b. It counts as cell-based, HCV genotype 1b (Con-1), Huh-7 cells. Particulars: Hepatitis C virus, Huh-7, 72 h, read-out: D168V 1b Ec50 (nM). (A replicon is a self-replicating genome or part of one, used to study replication in cells.)

The subject of assay [2] is HCV genotype 1a subgenomic replicon with NS3 resistance mutation R155K. The assay can be described thus: HCV replicon RNA replication assay, R155K 1a. The class given is cell-based, HCV genotype 1a (strain H77), Huh-7 cells. Conditions: Hepatitis C virus, Huh-7, 72 h, read-out: R155K 1a Ec50 (nM).
The subject of assay [3] is HCVPV1a subgenomic replicon (wild type 1a). As to the kind of experiment: HCV replicon RNA replication assay, wild type 1a. It counts as cell-based, HCV genotype 1a (strain H77), Huh-7 cells. Conditions: Hepatitis C virus, read-out: WT 1a Ec50.
The subject of assay [4] is HCVPV1b subgenomic replicon (wild type 1b). As to the kind of experiment: HCV replicon RNA replication assay, wild type 1b. Conditions: Hepatitis C virus, read-out: WT 1b Ec50. The class given is cell-based, HCV genotype 1b (Con-1), Huh-7 cells.
The subject of assay [5] is HCV genotype 1a subgenomic replicon with NS3 resistance mutation D168V. As to the kind of experiment: HCV replicon RNA replication assay, D168V 1a. Particulars: Hepatitis C virus, read-out: D168V 1a Ec50 (nM). It counts as cell-based, HCV genotype 1a (strain H77), Huh-7 cells.
The mark [6] stands for this setting: Table 1, luciferase replicon, Huh-7, 72 h.

Read-outs that look alike come from different tables or passages of the source.

For the compound `COc1ccc2c(O[C@@H]3C[C@H]4C(=O)N[C@]5(C(=O)NS(=O)(=O)C6(C)CC6)C[C@H]5/C=C\CCCCC[C@H](NC(=O)c5ccn(CC(F)F)n5)C(=O)N4C3)cc(OC(C)C)nc2c1C` [Compound 1001, (2R,6S,12Z,13aS,14aR,16aS)-6-({[1-(2,2-difluoroethyl)-1H-pyrazol-3-yl]carbonyl}amino)-2-{[7-methoxy-8-methyl-2-(propan-2-yloxy)quinolin-4-yl]oxy}-N-[(1-methylcyclopropyl)sulfonyl]-5,16-dioxo-1,2,3,6,7,8,9,10,11,13a,14,15,16,16a-tetradecahydrocyclopropa[e]pyrrolo[1,2-a][1,4]diazacyclopentadecine-14a(5H)-carboxamide], the EC50 stood at 0.1 nM in assay [1]; 0.96 nM in assay [2]; 0.22 nM in assay [3] (setting [6]); 0.17 nM in assay [4] (setting [6]); 0.78 nM in assay [5] (Huh-7, 72 h).

With `COCCn1ccc(C(=O)N[C@H]2CCCCC/C=C\[C@@H]3C[C@@]3(C(=O)NS(=O)(=O)C3(C)CC3)NC(=O)[C@@H]3C[C@@H](Oc4cc(OC(C)C)nc5c(C)c(OC)ccc45)CN3C2=O)n1` [Compound 1002, (2R,6S,12Z,13aS,14aR,16aS)-6-({[1-(2-methoxyethyl)-1H-pyrazol-3-yl]carbonyl}amino)-2-{[7-methoxy-8-methyl-2-(propan-2-yloxy)quinolin-4-yl]oxy}-N-[(1-methylcyclopropyl)sulfonyl]-5,16-dioxo-1,2,3,6,7,8,9,10,11,13a,14,15,16,16a-tetradecahydrocyclopropa[e]pyrrolo[1,2-a][1,4]diazacyclopentadecine-14a(5H)-carboxamide], the EC50 was 0.12 nM in assay [1]; 1.5 nM in assay [2]; 0.38 nM in assay [3] (setting [6]); 0.32 nM in assay [4] (setting [6]); 2.8 nM in assay [5] (Huh-7, 72 h).

Take `Cc1c(Cl)ccc2c(O[C@@H]3C[C@H]4C(=O)N[C@]5(C(=O)NS(=O)(=O)C6(C)CC6)C[C@H]5/C=C\CCCCC[C@H](NC(=O)c5ccn(C)n5)C(=O)N4C3)cc(OC(C)C)nc12` [Compound 1003, (2R,6S,12Z,13aS,14aR,16aS)-2-{[7-chloro-8-methyl-2-(propan-2-yloxy)quinolin-4-yl]oxy}-N-[(1-methylcyclopropyl)sulfonyl]-6-{[(1-methyl-1H-pyrazol-3-yl)carbonyl]amino}-5,16-dioxo-1,2,3,6,7,8,9,10,11,13a,14,15,16,16a-tetradecahydrocyclopropa[e]pyrrolo[1,2-a][1,4]diazacyclopentadecine-14a(5H)-carboxamide]: the EC50 came to 0.12 nM in assay [1]; 7.7 nM in assay [2]; 0.24 nM in assay [3] (setting [6]); 0.21 nM in assay [4] (setting [6]); 6.9 nM in assay [5] (Huh-7, 72 h).

Turning to `COc1ccc2c(O[C@@H]3C[C@H]4C(=O)N[C@]5(C(=O)NS(=O)(=O)C6(C)CC6)C[C@H]5/C=C\CCCCC[C@H](NC(=O)c5ccn(CCF)n5)C(=O)N4C3)cc(OC(C)C)nc2c1C` [Compound 1004, (2R,6S,12Z,13aS,14aR,16aS)-6-({[1-(2-fluoroethyl)-1H-pyrazol-3-yl]carbonyl}amino)-2-{[7-methoxy-8-methyl-2-(propan-2-yloxy)quinolin-4-yl]oxy}-N-[(1-methylcyclopropyl)sulfonyl]-5,16-dioxo-1,2,3,6,7,8,9,10,11,13a,14,15,16,16a-tetradecahydrocyclopropa[e]pyrrolo[1,2-a][1,4]diazacyclopentadecine-14a(5H)-carboxamide], the EC50 in assay [1] was determined as 0.15 nM; in assay [2], 1.3 nM; in assay [3] (setting [6]) it was 0.24 nM; in assay [4] (setting [6]) it was 0.27 nM; in assay [5] (Huh-7, 72 h), 1.8 nM.

In the case of `COc1ccc2c(O[C@@H]3C[C@H]4C(=O)N[C@]5(C(=O)NS(=O)(=O)C6(C)CC6)C[C@H]5/C=C\CCCCC[C@H](NC(=O)c5ccn(CC(F)(F)F)n5)C(=O)N4C3)cc(OC(C)C)nc2c1C` [Compound 1005, (2R,6S,12Z,13aS,14aR,16aS)-2-{[7-methoxy-8-methyl-2-(propan-2-yloxy)quinolin-4-yl]oxy}-N-[(1-methylcyclopropyl)sulfonyl]-5,16-dioxo-6-({[1-(2,2,2-trifluoroethyl)-1H-pyrazol-3-yl]carbonyl}amino)-1,2,3,6,7,8,9,10,11,13a,14,15,16,16a-tetradecahydrocyclopropa[e]pyrrolo[1,2-a][1,4]diazacyclopentadecine-14a(5H)-carboxamide], the half-maximal effective concentration (EC50) is 0.17 nM in assay [1]; 0.85 nM in assay [2]; 0.18 nM in assay [3] (setting [6]); 0.16 nM in assay [4] (setting [6]); 1.4 nM in assay [5] (Huh-7, 72 h).

Consider `COc1ccc2c(O[C@@H]3C[C@H]4C(=O)N[C@]5(C(=O)NS(=O)(=O)C6(C)CC6)C[C@H]5/C=C\CCCCC[C@H](NC(=O)c5cnn(C)n5)C(=O)N4C3)cc(OC(C)C)nc2c1C` [Compound 1006, (2R,6S,12Z,13aS,14aR,16aS)-2-{[7-methoxy-8-methyl-2-(propan-2-yloxy)quinolin-4-yl]oxy}-N-[(1-methylcyclopropyl)sulfonyl]-6-{[(2-methyl-2H-1,2,3-triazol-4-yl)carbonyl]amino}-5,16-dioxo-1,2,3,6,7,8,9,10,11,13a,14,15,16,16a-tetradecahydrocyclopropa[e]pyrrolo[1,2-a][1,4]diazacyclopentadecine-14a(5H)-carboxamide], for which the EC50 in assay [1] was determined as 0.17 nM; in assay [2], 2.2 nM; in assay [3] (setting [6]), 0.19 nM; in assay [4] (setting [6]), 0.18 nM; in assay [5] (Huh-7, 72 h) it was 9.6 nM.

As for `COc1ccc2c(O[C@@H]3C[C@H]4C(=O)N[C@]5(C(=O)NS(=O)(=O)C6CC6)C[C@H]5/C=C\CCCCC[C@H](NC(=O)c5ccn(CC(F)(F)F)n5)C(=O)N4C3)cc(OC(C)C)nc2c1C` [Compound 1012, (2R,6S,12Z,13aS,14aR,16aS)-N-(cyclopropylsulfonyl)-2-{[7-methoxy-8-methyl-2-(propan-2-yloxy)quinolin-4-yl]oxy}-5,16-dioxo-6-({[1-(2,2,2-trifluoroethyl)-1H-pyrazol-3-yl]carbonyl}amino)-1,2,3,6,7,8,9,10,11,13a,14,15,16,16a-tetradecahydrocyclopropa[e]pyrrolo[1,2-a][1,4]diazacyclopentadecine-14a(5H)-carboxamide], the EC50 was 0.31 nM in assay [1]; 0.29 nM in assay [3] (setting [6]); 0.24 nM in assay [4] (setting [6]); 1.9 nM in assay [5] (Huh-7, 72 h).

Take `COc1ccc2c(O[C@@H]3C[C@H]4C(=O)N[C@]5(C(=O)NS(=O)(=O)C6(C)CC6)C[C@H]5/C=C\CCCCC[C@H](NC(=O)c5ccn(C)n5)C(=O)N4C3)cc(OCC(F)(F)F)nc2c1C` [Compound 1029, (2R,6S,12Z,13aS,14aR,16aS)-2-{[7-methoxy-8-methyl-2-(2,2,2-trifluoroethoxy)quinolin-4-yl]oxy}-N-[(1-methylcyclopropyl)sulfonyl]-6-{[(1-methyl-1H-pyrazol-3-yl)carbonyl]amino}-5,16-dioxo-1,2,3,6,7,8,9,10,11,13a,14,15,16,16a-tetradecahydrocyclopropa[e]pyrrolo[1,2-a][1,4]diazacyclopentadecine-14a(5H)-carboxamide]: the EC50 in assay [1] is 0.25 nM; in assay [2], 1.5 nM; in assay [5] (Huh-7, 72 h) it was 9.5 nM.

With `CC[C@@H]1C[C@]1(NC(=O)[C@@H]1C[C@@H]2CN1C(=O)[C@H](C(C)(C)C)NC(=O)OCC(C)(C)CCCCc1cccc3c1CN(C3)C(=O)O2)C(=O)NS(=O)(=O)C1CC1` [reference compound], the EC50 in assay [3] (Table 2, clinical comparators, wildtype genotype 1a) is 0.4 nM; in assay [4] (Table 2, clinical comparators, wildtype genotype 1b), 1.2 nM; in assay [5], 3900 nM.

The EC50 is the concentration that produces a half-maximal response.
